# Reference: article PMC10784468 (Nature Communications, 2024)
# Several values for one entry are separate records, joined by “and”; a condition that tells them apart may be missing. Equal values may be shown once. Read-outs that look alike come from different tables or passages of the source. Positions of bridges follow the written chain, without caps; N, C: chain ends. Residues, ends and D or L forms follow the SMILES beside them. *: point of attachment. X1 = O=C(O)c1ccc(-c2c3nc(c(-c4ccc(C(=O)O)cc4)c4ccc([nH]4)c(-c4ccc(C(=O)*)cc4)c4nc(c(-c5ccc(C(=O)O)cc5)c5ccc2[nH]5)C=C4)C=C3)cc1; X2 = O=C(O)C/C(=C/C(=O)*)C(=O)O
# Columns and labels:
# [1] = •OH by TPA fluorescence assay, turnover frequency; details: TPA fluorescence 425 nm, H2O2 concentration-dependent
# Method: The generation of •OH was determined by the Magnettech MS-5000 EPR spectrometer. Typically, peptide-porphyrin conjugates (40 μM) were exposed to H2O2 (200 μM) for 3 min in the presence of 5,5-dimethyl-1-pyrroline-N-oxide (DMPO, 100 μM). The •OH signal was immediately detected by the EPR spectrometer. The amount of •OH was measured by using TPA as an indicator that following the increasement of HTPA fluorescence in the conjugate solution. Briefly, TPA (50 μL, 2 mM) and fresh conjugate solution (50 mM) were mixed with 1 ml H2O, and then the solution was exposed to various concentration of H2O2. The fluorescence at 425 nm (λex = 310 nm) was recorded at 5 min to determine the concentration of •OH, which can further be applied for calculating the TOF of peptide-porphyrin conjugates.
# Supplementary Fig. 21. Terephthalic acid (TPA) reacts with hydroxyl radical in solution to produce stable and strong fluorescent substances (Ortho -hydroxyterephthalic acid, HTPA). The reaction is used to quantitatively analyze •OH produced by Gi -F under the H2O2 treatment (a). Plot showing the linear relationship of relative fluorescence intensity with H 2O2 concentration (b). The fluorescence of different concentration of HTPA at 425 […]
# (§1) (1 picture or pasted object on this page, not shown here)
# HUVEC cells = assay type: cell-based; details: for Cell viability of HUVEC: HUVEC cells, pH=7.4
# Method: Supplementary Fig. 27. Viability of HUVEC cells after treated with Gi -F (pH=7.4) and Gi-F-CAA (pH=7.4) at different
# concentrations for 48 h (n=3 experimental repeats). Experiment was independently repeated three times with
# as §1
# EJ cells = test: Intracellular LPO fluorescence imaging (C11-BODIPY); assay type: cell-based; details: pH 6.5, 40 μM, 8 h
# Method: Initially, EJ cells (5 × 10^5) were cultured in confocal dish with a CO2 incubator overnight at 37 °C. […] Next, EJ cells were collected and washed with PBS for 3 times.
# [2] = Hydrolysis of the peptide-porphyrin conjugates at pH 7.4 and 6.5 (dialysis, HPLC); assay type: physicochemical; details: for Hydrolysis of CAA (%): 37 °C, dialysis MWCO 1000 Da, released CAA by HPLC, mean of n = 3; for Hydrolysis of SA (%): mean
# Method: In vitro hydrolysis analysis of the peptide-porphyrin conjugates was studied in pH values of 7.4 and 6.5 solutions. 20 mg of peptide-porphyrin conjugate was dissolved in 2 mL pH 7.4 buffer solution, which was then transferred into a dialysis bag (MWCO: 1000 Da) and immersed in 25 mL of different pH buffer solutions at 37 °C with continuous shaking respectively. At fixed time intervals (20 min, 40 min, 1 h, 2 h and 4 h), […] chromatography (HPLC, WATERS Alliance HPLC e2489), and an equal volume of fresh buffer solution was replaced to the system. In order to determine the CAA concentration according to the peak area of the CAA, a standard curve of the CAA was plotted, with the peak area as a function of the concentration. […]
# [3] = log concentration (μM) 0, replicate 1
# [4] = log concentration (μM) 0, replicate 2
# [5] = log concentration (μM) 0, replicate 3
# [6] = log concentration (μM) 0.30103, replicate 1
# [7] = log concentration (μM) 0.30103, replicate 2
# [8] = log concentration (μM) 0.30103, replicate 3
# [9] = log concentration (μM) 0.60206, replicate 1
# [10] = log concentration (μM) 0.60206, replicate 2
# [11] = log concentration (μM) 0.60206, replicate 3
# [12] = log concentration (μM) 0.90309, replicate 1
# [13] = log concentration (μM) 0.90309, replicate 2
# [14] = log concentration (μM) 0.90309, replicate 3
# [15] = log concentration (μM) 1.20412, replicate 1
# [16] = log concentration (μM) 1.20412, replicate 2
# [17] = log concentration (μM) 1.20412, replicate 3
# [18] = log concentration (μM) 1.50515, replicate 1
# [19] = log concentration (μM) 1.50515, replicate 2
# [20] = log concentration (μM) 1.50515, replicate 3
# [21] = log concentration (μM) 1.80618, replicate 1
# [22] = log concentration (μM) 1.80618, replicate 2
# [23] = log concentration (μM) 1.80618, replicate 3
# [24] = log concentration (μM) 2.10721, replicate 1
# [25] = log concentration (μM) 2.10721, replicate 2
# [26] = log concentration (μM) 2.10721, replicate 3
# [27] = log concentration (μM) 2.40824, replicate 1
# [28] = log concentration (μM) 2.40824, replicate 2
# [29] = log concentration (μM) 2.40824, replicate 3
compound,measurement,setting,value
FeTCPP-LKLKLKGACNWLPLYPCPV (disulfide) [Gi-F],turnover frequency (TOF),[1],0.022 s⁻¹
same,Cell viability of HUVEC,HUVEC cells; [3],101.3%
same,Cell viability of HUVEC,HUVEC cells; [4],99.35%
same,Cell viability of HUVEC,HUVEC cells; [5],85.17%
same,Cell viability of HUVEC,HUVEC cells; [6],83.14%
same,Cell viability of HUVEC,HUVEC cells; [7],92.08%
same,Cell viability of HUVEC,HUVEC cells; [8],87.75%
same,Cell viability of HUVEC,HUVEC cells; [9],84.4%
same,Cell viability of HUVEC,HUVEC cells; [10],84.96%
same,Cell viability of HUVEC,HUVEC cells; [11],81.47%
same,Cell viability of HUVEC,HUVEC cells; [12],84.05%
same,Cell viability of HUVEC,HUVEC cells; [13],81.61%
same,Cell viability of HUVEC,HUVEC cells; [14],70.99%
same,Cell viability of HUVEC,HUVEC cells; [15],70.71%
same,Cell viability of HUVEC,HUVEC cells; [16],64.63%
same,Cell viability of HUVEC,HUVEC cells; [17],61.91%
same,Cell viability of HUVEC,HUVEC cells; [18],57.51%
same,Cell viability of HUVEC,HUVEC cells; [19],49.41%
same,Cell viability of HUVEC,HUVEC cells; [20],55.06%
same,Cell viability of HUVEC,HUVEC cells; [21],45.98%
same,Cell viability of HUVEC,HUVEC cells; [22],47.94%
same,Cell viability of HUVEC,HUVEC cells; [23],46.54%
same,Cell viability of HUVEC,HUVEC cells; [24],37.74%
same,Cell viability of HUVEC,HUVEC cells; [25],31.25%
same,Cell viability of HUVEC,HUVEC cells; [26],33.97%
same,Cell viability of HUVEC,HUVEC cells; [27],21.61%
same,Cell viability of HUVEC,HUVEC cells; [28],25.66%
same,Cell viability of HUVEC,HUVEC cells; [29],20.7%
same,cytotoxicity toward normal cells compared with Gi-F-CAA,HUVEC cells; pH 7.4,obvious increased cytotoxicity
CC(C)C[C@H](NC(=O)c1ccc(-c2c3nc(c(-c4ccc(C(=O)O)cc4)c4ccc([nH]4)c(-c4ccc(C(=O)O)cc4)c4nc(c(-c5ccc(C(=O)O)cc5)c5ccc2[nH]5)C=C4)C=C3)cc1)C(=O)N[C@@H](CCCCNC(=O)/C=C(/CC(=O)O)C(=O)O)C(=O)N[C@@H](CC(C)C)C(=O)N[C@@H](CCCCN)C(=O)N[C@@H](CC(C)C)C(=O)N[C@@H](CCCCNC(=O)/C=C(/CC(=O)O)C(=O)O)C(=O)NCC(=O)N[C@@H](C)C(=O)N[C@H]1CSSC[C@@H](C(=O)N2CCC[C@H]2C(=O)N[C@H](C(=O)O)C(C)C)NC(=O)[C@@H]2CCCN2C(=O)[C@H](Cc2ccc(O)cc2)NC(=O)[C@H](CC(C)C)NC(=O)[C@@H]2CCCN2C(=O)[C@H](CC(C)C)NC(=O)[C@H](Cc2c[nH]c3ccccc23)NC(=O)[C@H](CC(N)=O)NC1=O [Gi-F-CAA] (X1-LK(X2)LKLK(X2)GACNWLPLYPCPV-OH; disulfide 9-17; C-terminus assumed),intracellular LPO (BODIPY 581/591 C11),EJ cells,extensive accumulation of LPO
same,"DLS size distribution, Number (%)",,0.000191% and 14% and 7.4%
same,Cell viability of HUVEC,HUVEC cells; [3],101.3%
same,Cell viability of HUVEC,HUVEC cells; [4],99.35%
same,Cell viability of HUVEC,HUVEC cells; [5],93.55%
same,Cell viability of HUVEC,HUVEC cells; [6],97.11%
same,Cell viability of HUVEC,HUVEC cells; [7],93.48%
same,Cell viability of HUVEC,HUVEC cells; [8],94.74%
same,Cell viability of HUVEC,HUVEC cells; [9],97.32%
same,Cell viability of HUVEC,HUVEC cells; [10],86.5%
same,Cell viability of HUVEC,HUVEC cells; [11],95.44%
same,Cell viability of HUVEC,HUVEC cells; [12],84.68%
same,Cell viability of HUVEC,HUVEC cells; [13],94.46%
same,Cell viability of HUVEC,HUVEC cells; [14],84.96%
same,Cell viability of HUVEC,HUVEC cells; [15],84.75%
same,Cell viability of HUVEC,HUVEC cells; [16],89.22%
same,Cell viability of HUVEC,HUVEC cells; [17],82.31%
same,Cell viability of HUVEC,HUVEC cells; [18],77.42%
same,Cell viability of HUVEC,HUVEC cells; [19],83.56%
same,Cell viability of HUVEC,HUVEC cells; [20],82.86%
same,Cell viability of HUVEC,HUVEC cells; [21],75.32%
same,Cell viability of HUVEC,HUVEC cells; [22],80.77%
same,Cell viability of HUVEC,HUVEC cells; [23],73.08%
same,Cell viability of HUVEC,HUVEC cells; [24],65.68%
same,Cell viability of HUVEC,HUVEC cells; [25],64.77%
same,Cell viability of HUVEC,HUVEC cells; [26],61.91%
same,Cell viability of HUVEC,HUVEC cells; [27],56.53%
same,Cell viability of HUVEC,HUVEC cells; [28],48.01%
same,Cell viability of HUVEC,HUVEC cells; [29],52.83%
same,Hydrolysis of CAA (%),"[2]; pH 6.5 buffer, 0 min",0%
same,Hydrolysis of CAA (%),"[2]; pH 6.5 buffer, 20 min",17.6%
same,Hydrolysis of CAA (%),"[2]; pH 6.5 buffer, 40 min",43.7%
same,Hydrolysis of CAA (%),"[2]; pH 6.5 buffer, 60 min",53.6%
same,Hydrolysis of CAA (%),"[2]; pH 6.5 buffer, 120 min",56.9%
same,Hydrolysis of CAA (%),"[2]; pH 6.5 buffer, 240 min",57.5%
same,Hydrolysis of CAA (%),"[2]; pH 7.4 buffer, 0 min",0%
same,Hydrolysis of CAA (%),"[2]; pH 7.4 buffer, 20 min",3.1%
same,Hydrolysis of CAA (%),"[2]; pH 7.4 buffer, 40 min",10.9%
same,Hydrolysis of CAA (%),"[2]; pH 7.4 buffer, 60 min",12.1%
same,Hydrolysis of CAA (%),"[2]; pH 7.4 buffer, 120 min",13.1%
same,Hydrolysis of CAA (%),"[2]; pH 7.4 buffer, 240 min",14.3%
"FeTCPP-LKLKLK(SA)GACNWLPLYPCPV (disulfide) [Gi-F-SA, control conjugate decorated with non-sensitive succinic anhydride (SA) moieties]",Hydrolysis of SA (%),"[2]; pH 6.5, 0 min",0%
same,Hydrolysis of SA (%),"[2]; pH 6.5, 20 min",1.1%
same,Hydrolysis of SA (%),"[2]; pH 6.5, 40 min",1.9%
same,Hydrolysis of SA (%),"[2]; pH 6.5, 60 min",2.1%
same,Hydrolysis of SA (%),"[2]; pH 6.5, 120 min",2.1%
same,Hydrolysis of SA (%),"[2]; pH 6.5, 240 min",2.3%
same,hydrolysis at pH 6.5 and 7.4,"[2]; pH 6.5 and 7.4, HPLC, Supplementary Fig. 11",little hydrolysis
same,Hydrolysis of SA (%),"[2]; pH 7.4, 0 min",0%
same,Hydrolysis of SA (%),"[2]; pH 7.4, 20 min",1%
same,Hydrolysis of SA (%),"[2]; pH 7.4, 40 min",1.2%
same,Hydrolysis of SA (%),"[2]; pH 7.4, 60 min",1.6%
same,Hydrolysis of SA (%),"[2]; pH 7.4, 120 min",1.9%
same,Hydrolysis of SA (%),"[2]; pH 7.4, 240 min",2.4%
